From patent publication US7056863B1, “Synergistic herbicidal compositions herbicides from the group of the hydroxyphenylpyruvate dioxygenase inhibitors” (Aventis CropScience GmbH, priority 1999, dated 2006)

Legend:
BRAPL = test: Outdoor plot trial, post-emergence treatment, visual evaluation of herbicidal activity; type: in vivo; conditions: Example B.VII, 300 g of ai/ha, outdoors
Description: (§1) Outdoors, crop plants were grown on plots of a size of from 5 to 10 m^2 on various soils and under various climatic conditions, and the natural presence of harmful plants and/or their seeds in the soil was utilized for the experiments. The treatment with the compositions according to the invention or the herbicides A) and B) applied individually was carried out after emergence of the harmful and the crop plants, in general at the 2- to 4-leaf stage. The active compounds or active compound combinations, formulated as WG, WP or EC, was carried out by the post-emergence method. After 2 to 8 weeks, visual evaluation was carried out in comparison with an untreated comparative group. […] In addition, the herbicidal activities of the compositions according to the invention exceed the expected values according to Colby.
(§2) If the observed activity values of the mixtures already exceed the formal sum of the values for the trials with individual applications, they also exceed the expected value according to Colby which is calculated using the following formula (cf. S. R. Colby; in Weeds 15 (1967) pp. 20 to 22):
(§3) The figures denote: • A, B=Activity of Components A and B in percent, at a dosage of a and b gram of ai/ha, respectively. • E=Expected value in % at a dosage of a+b gram of ai/ha.

ZEAMX (Zea mays) = test: Outdoor plot trial, post-emergence treatment, damage to crop plant; type: in vivo; conditions: Example B.VII, 300 g of ai/ha
Description: as §1

KCHSC (Kochia scoparia) = test: Outdoor plot trial, post-emergence treatment, visual evaluation of herbicidal activity; type: in vivo; conditions: Example B.I, outdoors
Description: as §1, §2, §3

[1] = system: PHBPU (Pharbitis purpurea); test: as above; type: in vivo; conditions: outdoors
Description: as §1, §2, §3

[2] = system: POROL (Portulaca oleracea); test: as above; type: in vivo; conditions: outdoors
Description: as §1, §2, §3

TRZDU (Triticum davam) = test: Outdoor plot trial, post-emergence treatment, damage to crop plant; conditions: in vivo
Description: as §1

[3] = system: CHEAL (Chenopodium album); test: Outdoor plot trial, post-emergence treatment, visual evaluation of herbicidal activity; type: in vivo; conditions: outdoors
Description: as §1, §2, §3

HORVS (Hordeum vulgaris) = test: Outdoor plot trial, post-emergence treatment, damage to crop plant; type: in vivo; conditions: Example B.VI, 100 g of ai/ha
Description: as §1

`N#Cc1cc(Br)c(O)c(Br)c1` [Compound B5, bromoxynil] gave a BRAPL found (BRAPL) of 0% and a ZEAMX found (ZEAMX (Zea mays)) of 0%.

For `COc1cc(OC)nc(NC(=O)NS(=O)(=O)c2ccc(NC=O)cc2C(=O)N(C)C)n1` [Compound B1], the KCHSC found (KCHSC (Kochia scoparia); 30 g of ai/ha) was 30%, the KCHSC found (KCHSC (Kochia scoparia); 60 g of ai/ha) was 33% and the PHBPU found ([1]; Example B.II, 30 g of ai/ha) was 20%. The POROL found ([2]; Example B.V, 30 g of ai/ha) was 43%.

`CS(=O)(=O)c1ccc(C(=O)C2C(=O)CCCC2=O)c(Cl)c1COCC(F)(F)F` [Compound A4] was tested, and the POROL found ([2]; Example B.VIII, 25 g of ai/ha) was 5% and the TRZDU found (TRZDU (Triticum davam)) was 5%.

`CP(=O)(O)CCC(N)C(=O)O` (stereo not shown) [Compound B2, glufosinate] was tested, and the CHEAL found ([3]; Example B.IV, 500 g of ai/ha) was 60% and the PHBPU found ([1]; Example B.III, 500 g of ai/ha) was 43%.

`CC(C)(F)c1nc(N)nc(NC(CCc2ccccc2)C2CCC2)n1` (stereo not shown) [Compound B3] gave a CHEAL found ([3]; Example B.VI, 100 g of ai/ha) of 30% and an HORVS found (HORVS (Hordeum vulgaris)) of 0%.

`CS(=O)(=O)c1ccc(C(=O)C2C(=O)CCCC2=O)c(Cl)c1C1=NOCC1` [Compound A1] was tested, and the KCHSC found (KCHSC (Kochia scoparia); 25 g of ai/ha) was 28%.

`Cc1cc(C(=O)C2C(=O)CCCC2=O)c(C)c2c1S(=O)(=O)CCC2Oc1ncccn1` (stereo not shown) [Compound A2] gave a CHEAL found ([3]; Example B.IV, 100 g of ai/ha) of 34%, a PHBPU found ([1]; Example B.II, 50 g of ai/ha) of 65% and a PHBPU found ([1]; Example B.III, 100 g of ai/ha) of 45%. It also gave a POROL found ([2]; Example B.V, 100 g of ai/ha) of 0%.

Work on `COC(=O)c1ccc(I)cc1S(=O)(=O)[N-]C(=O)Nc1nc(C)nc(OC)n1.[Na+]` [Compound B4] yielded a POROL found ([2]; Example B.VIII, 2.5 g of ai/ha) of 20% and a TRZDU found (TRZDU (Triticum davam)) of 15%.
